Source: patent publication US20250326741A1, “GLUCOSE-DEPENDENT INSULINOTROPIC POLYPEPTIDE RECEPTOR ANTAGONISTS AND USES THEREOF” (Pfizer Inc., priority 2024, published 2025)

biological target: T1, human Glucose-dependent Insulinotropic Polypeptide Receptor (hGIPR) (Homo sapiens, UniProt P48546); assay: Functional in vitro GIPR antagonist potency assay (intracellular cAMP, HTRF, hGIP stimulation at EC80); format: cell-based; conditions: not given
T1 sequence (P48546 22-466): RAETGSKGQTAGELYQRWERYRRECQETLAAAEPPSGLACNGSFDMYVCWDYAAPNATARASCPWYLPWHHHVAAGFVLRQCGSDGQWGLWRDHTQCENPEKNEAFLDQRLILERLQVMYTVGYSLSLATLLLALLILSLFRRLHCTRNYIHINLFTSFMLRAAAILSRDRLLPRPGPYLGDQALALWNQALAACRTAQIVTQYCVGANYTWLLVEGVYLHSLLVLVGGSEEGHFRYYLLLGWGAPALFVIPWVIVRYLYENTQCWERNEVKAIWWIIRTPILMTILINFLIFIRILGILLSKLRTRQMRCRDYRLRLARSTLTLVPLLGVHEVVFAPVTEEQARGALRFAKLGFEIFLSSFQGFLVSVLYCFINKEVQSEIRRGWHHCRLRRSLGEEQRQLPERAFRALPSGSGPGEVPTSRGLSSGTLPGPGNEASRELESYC
Protocol: Example AA. Functional In Vitro GIPR Antagonist Potency Assay
The functional in vitro antagonist potency for test compounds was determined by monitoring intracellular cyclic adenosine monophosphate (cAMP) levels in Chinese hamster ovary (CHO)—K1 cells stably expressing the human Glucose-dependent Insulinotropic Polypeptide Receptor (hGIPR). Following agonist activation, hGIPR associates with the G-protein complex causing the Gas subunit to exchange bound guanosine diphosphate (GDP) for guanosine triphosphate (GTP), followed by dissociation of the Gas-GTP complex. The activated Gas subunit can couple to downstream effectors to regulate the levels of second messengers or cAMP within the cell. Thereby, determination of intracellular cAMP levels allows for pharmacological characterization. Intracellular cAMP levels are quantitated using a homogenous assay utilizing the Homogeneous Time Resolved Fluorescence (HTRF) technology from Perkin Elmer. The method is a competitive immunoassay between native cAMP produced by the cells and cAMP labelled with the acceptor dye, d2. The two entities compete for binding to a monoclonal anti-cAMP antibody labeled with cryptate. The specific signal is inversely proportional to the concentration of cAMP in the cells.
Test compounds were solubilized to a concentration of 30 mM in 100% dimethyl sulfoxide (DMSO). An 11-point dilution series using 1 in 3.162-fold serial dilutions was created in 100% DMSO with a top concentration of 8 mM. The serially diluted compound was spotted with an Echo Acoustic liquid handler (Beckman Coulter) into a 384-well assay plate (Corning, Cat No. 3824) at 50 nL/well with duplicate points at each concentration, at a 200× final assay concentration (FAC). The final compound concentration range in the assay was 40 μM to […], with a final DMSO concentration of 0.5%.
Frozen assay-ready vials (at 1×10^7 cells/vial) of CHO-K1 cells stably expressing the Gs-coupled human GIPR receptor (Eurofins, DiscoverX, Cat No. 95-0146C2) were thawed, counted, and resuspended in assay buffer consisting of Hank's Balanced Salt Solution (HBSS, Lonza Cat No. 10-527) containing 20 mM (4-(2-hydroxyethyl)-1-piperazineethanesulfonic acid (HEPES, Lonza, Cat No. 17-737E), 0.1% bovine serum albumin (BSA, Sigma, Cat No. A7979), and 200 μM 3-isobutyl-1-methylxanthine (IBMX, Sigma, Cat No. 15879) at a density of 4×10^5 cells/mL. Cells were added to assay plate (5 μL/well of 4×10^5 cells/mL stock for 2,000 cells/well final) containing 50 nL of 200×FAC test compound, and incubated at 37° C. (95% O2: 5% CO2) for 2 hours, with micro-clime lids (Labcyte, Cat No. LLS-0310). Following the 2-hour cell and compound incubation, a stimulation mix comprised of hGIPR agonist human glucose-dependent insulinotropic polypeptide (hGIP, full length, Sigma Cat No. G2269) in assay buffer/0.1% DMSO was added to the assay plate (5 μL/well) at an estimated EC80 FAC (based on previous hGIP agonist curves) and incubated for another 30 minutes with micro-clime lids at 37° C. (95% O2: 5% CO2), after which intracellular cAMP levels were quantified as per Perkin Elmer's protocol (5 μL of d2 and then 5 μL cryptate, incubated for 1 hour at room temperature). Emission spectra of samples were measured on a Pherastar plate reader (BMG Labtech Inc) using a HTRF protocol (excitation, 320 nm; emission, 665 nm/620 nm).
(95% O2: 5% CO2), with a micro-clime lid. Following the 2-hour cell and DMSO incubation, a hGIP concentration response curve at 2×FAC (12-point curve using 1 in 3 serial dilutions, with triplicate points at each concentration, 100 nM final top concentration) in assay buffer/1% DMSO was added (5 μL/well) and incubated for a further 30 minutes with a micro-clime lid at 37° C. (95% O2: 5% CO2), after which intracellular cAMP levels were quantified and samples measured as described previously. Experiments passed quality control if the agonist concentration used for stimulation fell between the on-the-day EC50-EC90. […]

Row | Structure (SMILES) | IC50
1 | Cc1cc(-n2ccc(NC(=O)[C@H]3CCCN3C(=O)Nc3ccc(OC(F)(F)F)cc3)n2)ccc1C(=O)O [Example 11, 2-Methyl-4-{3-[(1-{[4-(trifluoromethoxy)phenyl]carbamoyl}-D-prolyl)amino]-1H-pyrazol-1-yl}benzoic Acid] | 11 nM
2 | CC(C)c1ccc(NC(=O)N2CCC[C@@H]2C(=O)Nc2ccn(-c3ccc(C(=O)O)cn3)n2)cc1F [Example 3, 6-{3-[(1-{[3-Fluoro-4-(propan-2-yl)phenyl]carbamoyl}-D-prolyl)amino]-1H-pyrazol-1-yl}pyridine-3-carboxylic Acid] | 20 nM

same assay, conditions: geometric mean; CHO-K1 cells stably expressing human GIPR, cAMP after hGIP stimulation at EC80

Row | Structure (SMILES) | IC50
3 | Cc1cc(-n2ccc(NC(=O)[C@H]3CCCN3C(=O)Nc3ccc(C4CCCC4)cc3)n2)ccc1C(=O)O [Example 45, 4-[3-({1-[(4-cyclopentylphenyl)carbamoyl]-D-prolyl}amino)-1H-pyrazol-1-yl]-2-methylbenzoic acid] | 8.4 nM
4 | Cc1cc(NC(=O)N2CCC[C@@H]2C(=O)Nc2ccn(-c3cc(F)c(O)c(F)c3)n2)ccc1C(C)C [Example 55] | 3.8 nM
5 | CC(C)c1ccc(NC(=O)N2CCC[C@@H]2C(=O)Nc2ccn(-c3ccc(C(N)=O)cc3)n2)cc1 [Example 35] | 120 nM
6 | Cc1cc(-n2ccc(NC(=O)[C@H]3CCCN3C(=O)Nc3ccc(C(C)C)cc3)n2)c(F)cc1C(=O)O [Example 50, 5-fluoro-2-methyl-4-{3-[(1-{[4-(propan-2-yl)phenyl]carbamoyl}-D-prolyl)amino]-1H-pyrazol-1-yl}benzoic acid] | 21 nM
7 | CC(C)c1ccc(NC(=O)N2CCC[C@@H]2C(=O)Nc2ccn(-c3ccc(C(N)=O)cc3)n2)cc1F [Example 57] | 120 nM
8 | CC(C)c1ccc(NC(=O)N2CCC[C@@H]2C(=O)Nc2ccn(-c3ccc(C(=O)O)cn3)n2)cc1 [Example 21, 6-{3-[(1-{[4-(propan-2-yl)phenyl]carbamoyl}-D-prolyl)amino]-1H-pyrazol-1-yl}pyridine-3-carboxylic acid] | 50 nM
9 | Cc1cc(-n2ccc(NC(=O)[C@H]3CCCN3C(=O)Nc3ccc(C(C)C)c(C)c3)n2)ccc1C(=O)O [Example 6, 2-Methyl-4-{3-[(1-{[3-methyl-4-(propan-2-yl)phenyl]carbamoyl}-D-prolyl)amino]-1H-pyrazol-1-yl}benzoic Acid] | 4.1 nM
10 | O=C(O)c1ccc(-n2ccc(NC(=O)[C@H]3CCCN3C(=O)Nc3ccc(C(F)(F)F)cc3)n2)cc1 [Example 23, 4-{3-[(1-{[4-(trifluoromethyl)phenyl]carbamoyl}-D-prolyl)amino]-1H-pyrazol-1-yl}benzoic acid] | 43 nM

Now from value to compound:

Row | IC50 | Structure (SMILES)
11 | 8.8 nM | C=C(C)c1ccc(NC(=O)N2CCC[C@@H]2C(=O)Nc2ccn(-c3ccc(C(=O)O)c(C)c3)n2)cc1C [Example 58, 2-methyl-4-{3-[(1-{[3-methyl-4-(prop-1-en-2-yl)phenyl]carbamoyl}-D-prolyl)amino]-1H-pyrazol-1-yl}benzoic acid]
12 | 11 nM | Cc1cc(-n2ccc(NC(=O)[C@H]3CCCN3C(=O)Nc3ccc(OC(F)(F)F)cc3)n2)c(F)cc1C(=O)O [Example 59, 5-Fluoro-2-methyl-4-{3-[(1-{[4-(trifluoromethoxy)phenyl]carbamoyl}-D-prolyl)amino]-1H-pyrazol-1-yl}benzoic Acid]
13 | 28 nM | Cc1c(C(=O)O)ccc(-n2ccc(NC(=O)[C@H]3CCCN3C(=O)COc3ccc(C(F)(F)F)cc3)n2)c1F [Example 64, 3-fluoro-2-methyl-4-{3-[(1-{[4-(trifluoromethyl)phenoxy]acetyl}-D-prolyl)amino]-1H-pyrazol-1-yl}benzoic acid]
14 | 210 nM | Cc1cc(-n2ccc(NC(=O)[C@H]3CCCN3C(=O)COc3ccc(C(F)(F)F)cc3)n2)ccc1C(N)=O [Example 60, N-[1-(4-carbamoyl-3-methylphenyl)-1H-pyrazol-3-yl]-1-{[4-(trifluoromethyl)phenoxy]acetyl}-D-prolinamide]
15 | 54 nM | Cc1c(C(=O)O)ccc(-n2ccc(NC(=O)[C@H]3CCCN3C(=O)Nc3ccc(C(F)(F)F)cc3)n2)c1F [Example 66, 3-fluoro-2-methyl-4-{3-[(1-{[4-(trifluoromethyl)phenyl]carbamoyl}-D-prolyl)amino]-1H-pyrazol-1-yl}benzoic acid]
